From patent US5021419A, “Novel pyrazinoxide compound of NF-1616-904 and a pharmaceutical composition containing the same” (Otsuka Pharmaceutical Co., Ltd., priority 1987, dated 1991)

How the values were obtained:
Masugi nephritis = experiment: Anti-albuminuria activity in Masugi nephritis (Pharmacological Test-3); type: in vivo, rat; details: oral; for Ratio of inhibition of albuminuria: 24 hours after NT, versus control; for Albuminuria: urine 24 hours after NT, mean±S.E., six rats, control 120 ± 30
Method: Anti-albuminuria activity of the pyrazinoxide compound of NF-1616-904 in Masugi nephritis
Rat nephrotoxin (hereinafter referred to as "NT") was prepared as follows. Thus, the kidney cortex of a rat was homogenized with an equal amount of physiological saline, then the thus obtained homogenate was admixed with Freund's complete adjuvant (manufacture by Difco Laboratories, Inc., Detroit, Mich., U.S.A.) in the ratio of 1:1. Then, 2 ml of this mixture was administered subcutaneously to a rabbit (body weight: 3.1 kg) to have said rabbit immunized. 1.5 Months after the immunization, the blood was sampled from the heart of said rabbit, and the serum was obtained thereform. The serum thus obtained was inactivated at 56° C. for 30 minutes, and subjected to fractionation by salting out with a aqueous solution saturated with 40% of ammonium sulfate. By sampling of immunoglobulin-γ-globulin (IgG) fraction, the desired NT was obtained.
This test was conducted by using Wisterstrain male rats having 150-160 g body weight. Pyrazinoxide compound of NF-1616-904 of the present invention […] were orally administered forcedly. Additionally, 1 ml of NT was administered intravenously to the tail vein of said rat. On the other hand, in place of pyrazinoxide compound of NF-1616-904, physiological saline was administered to other rats to make the control group.
The total amount of urinary protein being excreted in the urine during 24 hours after the administration of NT was determined by turbidity method using sulfosalicylic acid and bovine serum albumin (BSA) as the reference substance, according to procedures described in an article by F. Kingsbury, et al. in J. Lab. Clin. Med., Vol. 11, (1926), pages 981-989.
The ratio of inhibition of albuminuria (%) in the test group was calculated by referring to the measured value in the control group. The test results are shown in the following Table 2, in which each of the test data are shown at the mean value±S. E. of the six rats used in each of test and control groups.

[1] = tested on: superoxide radicals (O2^-) release from the peritoneal macrophage cells of guinea pig; experiment: Inhibitory effect against superoxide radicals (O2^-) release from peritoneal macrophage cells by FMLP stimulation, cytochrome C reduction (Pharmacological Test-2); type: cell-based; details: Cavia porcellus, Peritoneal macrophage cell; FMLP 10^-7 M; 2×10^6 cells/ml; OD550; read-out: 50% inhibitory concentration (IC50)
Method: Inhibitory effect of the pyrazinoxide compound of NF-1616-904 against superoxide radicals (O2^-) release from the peritoneal macrophage cells of guinea pig by stimulation:
Mineral oil was intraperitoneally administered to a guinea pig, then 96 hours after the administration, the peritoneal microphage cells were obtained.
Superoxide radicals (O2^-) were determined by means of reduction of cytochrome C according to the procedures described in an article by T. Matsumoto, et al. in Biochemical and Biophysical Research Communications, Vol. 88, No. 3 (1979), pages 974-979.
Thus, the peritoneal macrophage cells were added to make the final concentration of 2×10^6 cells/ml into 1 ml of 80 μM-cytochrome C solution, further the pyrazinoxide compound of NF-1616-904 was added thereto to make the test group sample. On the other hand, water added in place of the pyrazinoxide compound of NF-1616-904 to make the control group sample. Both test group and control group samples were subjected to a pure incubation at 37° C. for 1 minute.
As to the stimulating agent for releasing superoxide radicals (O2^-), formylmethionylleucylphenylalanine (FMLP) was added to make the final concentration of 10^-7 M into the above-mentioned test group sample and control group sample. Then, both samples were subjected to additional reaction for 1 minute. […]

P388/VCR cells = experiment: Effect for decreasing the tolerance against Vincristine in P388/VCR cells (Pharmacological Test-1); type: cell-based; details: Control group, NF-1616-902 0; 48 hours
Source text: Effect for decreasing the tolerance against Vincristine in P388/VCR cells

| Structure (SMILES) | Ratio of inhibition of albuminuria (Masugi nephritis; 30 mg/kg) | Albuminuria (Masugi nephritis; 30 mg/kg) | Ratio of inhibition of albuminuria (Masugi nephritis; 60 mg/kg) | Albuminuria (Masugi nephritis; 60 mg/kg) | IC50 [1] | Cytotoxic concentration of Vincristine (P388/VCR cells) |
| --- | --- | --- | --- | --- | --- | --- |
| COc1c(Cc2c[nH]c3ccccc23)[nH]c(=O)c(CC(C)C)[n+]1[O-] [NF-1616-904] | 62.5% | 45 ± 16 mg/day | 26.7% | 88 ± 18 mg/day | 12 µM | – |
| CC[C@]1(O)C[C@H]2CN(CCc3c([nH]c4ccccc34)[C@@](C(=O)OC)(c3cc4c(cc3OC)N(C=O)[C@H]3[C@@](O)(C(=O)OC)[C@H](OC(C)=O)[C@]5(CC)C=CCN6CC[C@]43[C@@H]65)C2)C1 [Vincristine] | – | – | – | – | – | 100 ng/mL |
